Results taken from ChEMBL document CHEMBL1159031, “Cytotoxic quassinoids from Cedronia granatensis” (1992).

Assays:
Format in all cases: functional
LOX IMVI = assay: Cytotoxicity against human LOXIMVI cells; conditions: read-out: Log10LC50 (converted)
SF-295 = assay: Cytotoxicity against human SF295 cells; conditions: read-out: Log10LC50 (converted)
M19-MEL = assay: Cytotoxicity against human M19-MEL cells; conditions: read-out: Log10LC50 (converted)
HCC 2998 = assay: Cytotoxicity against human HCC2998 cells; conditions: read-out: Log10LC50 (converted)
HCT-116 = assay: Cytotoxicity against human HCT116 cells; conditions: read-out: Log10LC50 (converted)
HOP-62 = assay: Cytotoxicity against human HOP62 cells; conditions: read-out: Log10LC50 (converted)
SNB-75 = assay: Cytotoxicity against human SNB75 cells; conditions: read-out: Log10LC50 (converted)
K562 = assay: Cytotoxicity against human K562 cells; conditions: read-out: Log10LC50 (converted)
KM-20L2 = assay: Cytotoxicity against human KM20L2 cells; conditions: read-out: Log10LC50 (converted)
[1] = Cytotoxicity against human RXF631 cells; conditions: RXF 631, read-out: Log10LC50 (converted)
UACC-257 = assay: Cytotoxicity against human UACC257 cells; conditions: read-out: Log10LC50 (converted)
HL-60(TB) = assay: Cytotoxicity against human HL-60(TB) cells; conditions: read-out: Log10LC50 (converted)
UO-31 = assay: Cytotoxicity against human UO31 cells; conditions: read-out: Log10LC50 (converted)
UACC-62 = assay: Cytotoxicity against human UACC62 cells; conditions: read-out: Log10LC50 (converted)
CAKI-1 = assay: Cytotoxicity against human Caki1 cells; conditions: read-out: Log10LC50 (converted)
ACHN = assay: Cytotoxicity against human ACHN cells; conditions: read-out: Log10LC50 (converted)
DMS-114 = assay: Cytotoxicity against human DMS114 cells; conditions: read-out: Log10LC50 (converted)
SNB-78 = assay: Cytotoxicity against human SNB78 cells; conditions: read-out: Log10LC50 (converted)
SNB-19 = assay: Cytotoxicity against human SNB19 cells; conditions: read-out: Log10LC50 (converted)
RPMI-8226 = assay: Cytotoxicity against human RPMI8226 cells; conditions: read-out: Log10LC50 (converted)
XF498 = assay: Cytotoxicity against human XF498 cells; conditions: read-out: Log10LC50 (converted)
A549 = assay: Cytotoxicity against human A549 cells; conditions: read-out: Log10LC50 (converted)
SF-268 = assay: Cytotoxicity against human SF268 cells; conditions: read-out: Log10LC50 (converted)
HOP-18 = assay: Cytotoxicity against human HOP18 cells; conditions: read-out: Log10LC50 (converted)
EKVX = assay: Cytotoxicity against human EKVX cells; conditions: read-out: Log10LC50 (converted)
OVCAR-3 = assay: Cytotoxicity against human OVCAR-3 cells; conditions: read-out: Log10LC50 (converted)
OVCAR-8 = assay: Cytotoxicity against human OVCAR8 cells; conditions: read-out: Log10LC50 (converted)
SK-MEL-28 = assay: Cytotoxicity against human SK-MEL-28 cells; conditions: read-out: Log10LC50 (converted)
SR = assay: Cytotoxicity against human SR cells; conditions: read-out: Log10LC50 (converted)
KM12 = assay: Cytotoxicity against human KM12 cells; conditions: read-out: Log10LC50 (converted)
MOLT-4 = assay: Cytotoxicity against human MOLT4 cells; conditions: read-out: Log10LC50 (converted)
U-251 = assay: Cytotoxicity against human U251 cells; conditions: read-out: Log10LC50 (converted)
OVCAR-5 = assay: Cytotoxicity against human OVCAR5 cells; conditions: read-out: Log10LC50 (converted)
NCI-H226 = assay: Cytotoxicity against human NCI-H226 cells; conditions: read-out: Log10LC50 (converted)
SN12C = assay: Cytotoxicity against human SN12C cells; conditions: read-out: Log10LC50 (converted)
Malme-3M = assay: Cytotoxicity against human MALME-3M cells; conditions: read-out: Log10LC50 (converted)
NCI-H23 = assay: Cytotoxicity against human NCI-H23 cells; conditions: read-out: Log10LC50 (converted)
[2] = Cytotoxicity against human LXFL 529L cells; conditions: read-out: Log10LC50 (converted)
IGROV-1 = assay: Cytotoxicity against human IGROV1 cells; conditions: read-out: Log10LC50 (converted)
NCI-H460 = assay: Cytotoxicity against human NCI-H460 cells; conditions: read-out: Log10LC50 (converted)
TK-10 = assay: Cytotoxicity against human TK10 cells; conditions: read-out: Log10LC50 (converted)
NCI-H522 = assay: Cytotoxicity against human NCI-H522 cells; conditions: read-out: Log10LC50 (converted)
SF-539 = assay: Cytotoxicity against human SF539 cells; conditions: read-out: Log10LC50 (converted)
[3] = Cytotoxicity against human NCI-H322 cells; conditions: read-out: Log10LC50 (converted)
DMS-273 = assay: Cytotoxicity against human DMS273 cells; conditions: read-out: Log10LC50 (converted)
DLD-1 = assay: Cytotoxicity against human DLD1 cells; conditions: read-out: Log10LC50 (converted)
SK-OV-3 = assay: Cytotoxicity against human SKOV3 cells; conditions: read-out: Log10LC50 (converted)
HCT-15 = assay: Cytotoxicity against human HCT15 cells; conditions: read-out: Log10LC50 (converted)
A498 = assay: Cytotoxicity against human A498 cells; conditions: read-out: Log10LC50 (converted)
[4] = Cytotoxicity against human 786-O cells; conditions: 786-0, read-out: Log10LC50 (converted)
RXF 393 = assay: Cytotoxicity against human RXF393 cells; conditions: read-out: Log10LC50 (converted)
HOP-92 = assay: Cytotoxicity against human HOP92 cells; conditions: read-out: Log10LC50 (converted)
SW-620 = assay: Cytotoxicity against human SW620 cells; conditions: read-out: Log10LC50 (converted)
SK-MEL-5 = assay: Cytotoxicity against human SK-MEL-5 cells; conditions: read-out: Log10LC50 (converted)
SK-MEL-2 = assay: Cytotoxicity against human SK-MEL-2 cells; conditions: read-out: Log10LC50 (converted)
CCRF-CEM = assay: Cytotoxicity against human CCRF-CEM cells; conditions: read-out: Log10LC50 (converted)
OVCAR-4 = assay: Cytotoxicity against human OVCAR4 cells; conditions: read-out: Log10LC50 (converted)
HT-29 = assay: Cytotoxicity against human HT-29 cells; conditions: read-out: Log10LC50 (converted)
M14 = assay: Cytotoxicity against human M14 cells; conditions: read-out: Log10LC50 (converted)
COLO 205 = assay: Cytotoxicity against human COLO205 cells; conditions: read-out: Log10LC50 (converted)

Which results are given for COC(=O)[C@@]12OC[C@]34[C@H]([C@@H](O)[C@@H]1O)[C@@]1(C)[C@H](O)C(=O)C=C(C)[C@@H]1C[C@H]3OC(=O)[C@H](OC(C)=O)[C@@H]24 [ISOBRUCEIN B]?
CC50 (LOX IMVI): 8.51 µM; CC50 (SF-295): 32.4 µM; CC50 (M19-MEL): 4.79 µM; CC50 (HCC 2998): 1.58 µM; CC50 (HCT-116): 18.2 µM; CC50 (HOP-62): 42.7 µM; CC50 (SNB-75): 14.1 µM; CC50 (K562): 11 µM; CC50 (KM-20L2): 42.7 µM; CC50 [1]: 42.7 µM; CC50 (UACC-257): 20.9 µM; CC50 (HL-60(TB)): 0.347 µM; CC50 (UO-31): 42.7 µM; CC50 (UACC-62): 5.37 µM; CC50 (CAKI-1): 42.7 µM; CC50 (ACHN): 42.7 µM; CC50 (DMS-114): 1.91 µM; CC50 (SNB-78): 42.7 µM; CC50 (SNB-19): 42.7 µM; CC50 (RPMI-8226): 42.7 µM; CC50 (XF498): 12 µM; CC50 (A549): 42.7 µM; CC50 (SF-268): 40.7 µM; CC50 (HOP-18): 42.7 µM; CC50 (EKVX): 42.7 µM; CC50 (OVCAR-3): 42.7 µM; CC50 (OVCAR-8): 21.9 µM; CC50 (SK-MEL-28): 3.39 µM; CC50 (SR): 42.7 µM; CC50 (KM12): 20.9 µM; CC50 (MOLT-4): 42.7 µM; CC50 (U-251): 42.7 µM; CC50 (OVCAR-5): 42.7 µM; CC50 (NCI-H226): 14.1 µM; CC50 (SN12C): 42.7 µM; CC50 (Malme-3M): 3.02 µM; CC50 (NCI-H23): 3.47 µM; CC50 [2]: 42.7 µM; CC50 (IGROV-1): 42.7 µM; CC50 (NCI-H460): 14.1 µM; CC50 (TK-10): 42.7 µM; CC50 (NCI-H522): 6.17 µM; CC50 (SF-539): 1.29 µM; CC50 [3]: 42.7 µM; CC50 (DMS-273): 2.69 µM; CC50 (DLD-1): 42.7 µM; CC50 (SK-OV-3): 42.7 µM; CC50 (HCT-15): 33.1 µM; CC50 (A498): 5.75 µM; CC50 [4]: 33.1 µM; CC50 (RXF 393): 10 µM; CC50 (HOP-92): 42.7 µM; CC50 (SW-620): 39.8 µM; CC50 (SK-MEL-5): 2.09 µM; CC50 (SK-MEL-2): 7.08 µM; CC50 (CCRF-CEM): 42.7 µM; CC50 (OVCAR-4): 11 µM; CC50 (HT-29): 42.7 µM; CC50 (M14): 2.29 µM; CC50 (COLO 205): 5.75 µM
